PMC8980959, “Ceramide kinase regulates acute wound healing by suppressing 5-oxo-ETE biosynthesis and signaling via its receptor OXER1” (Journal of Lipid Research, 2022)

Columns and labels:
[1] = target: T1, ceramide kinase (CERK), mouse (Mus musculus, UniProt Q8K4Q7); test: in vitro CERK activity assay; type: biochemical
T1 sequence (Q8K4Q7 1-531): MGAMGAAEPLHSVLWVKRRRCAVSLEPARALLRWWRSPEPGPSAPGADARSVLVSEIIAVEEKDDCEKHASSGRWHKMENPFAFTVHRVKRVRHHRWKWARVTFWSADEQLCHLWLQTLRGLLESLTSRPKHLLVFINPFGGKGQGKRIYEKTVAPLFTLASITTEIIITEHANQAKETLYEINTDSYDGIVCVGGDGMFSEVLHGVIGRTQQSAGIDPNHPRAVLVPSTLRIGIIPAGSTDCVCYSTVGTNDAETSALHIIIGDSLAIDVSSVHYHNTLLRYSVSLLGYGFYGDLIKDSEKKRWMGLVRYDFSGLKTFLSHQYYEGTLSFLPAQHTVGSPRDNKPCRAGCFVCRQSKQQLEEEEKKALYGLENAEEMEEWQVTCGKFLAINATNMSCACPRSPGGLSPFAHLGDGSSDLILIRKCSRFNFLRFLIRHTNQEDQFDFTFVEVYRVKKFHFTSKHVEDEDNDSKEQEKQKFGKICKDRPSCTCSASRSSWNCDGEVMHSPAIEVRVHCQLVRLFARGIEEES

[2] = target: T2, ceramide kinase (CERK), human (Homo sapiens, UniProt Q8TCT0); test: in vitro CERK activity assay; type: biochemical
T2 sequence (Q8TCT0 1-537): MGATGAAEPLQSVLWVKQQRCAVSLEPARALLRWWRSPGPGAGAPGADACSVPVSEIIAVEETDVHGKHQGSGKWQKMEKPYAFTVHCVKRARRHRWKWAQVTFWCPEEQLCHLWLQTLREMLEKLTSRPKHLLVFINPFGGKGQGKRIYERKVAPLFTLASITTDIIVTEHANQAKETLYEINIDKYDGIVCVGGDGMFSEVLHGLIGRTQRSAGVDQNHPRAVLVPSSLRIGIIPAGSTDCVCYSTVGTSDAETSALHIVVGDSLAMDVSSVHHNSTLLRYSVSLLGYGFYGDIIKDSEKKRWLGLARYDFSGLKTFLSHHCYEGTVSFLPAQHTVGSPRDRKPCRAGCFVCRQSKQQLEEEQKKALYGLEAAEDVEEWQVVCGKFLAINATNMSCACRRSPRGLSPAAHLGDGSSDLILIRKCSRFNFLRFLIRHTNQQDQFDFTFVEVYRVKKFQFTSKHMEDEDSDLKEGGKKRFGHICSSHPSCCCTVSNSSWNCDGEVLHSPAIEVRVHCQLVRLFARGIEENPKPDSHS

[3] = target: T1, ceramide kinase (CERK), mouse; test: C1P product levels by UPLC ESI-MS/MS in mouse dermal fibroblasts, […]; type: cell-based

SYR382141
IC50 [1]: 9 nM
IC50 [2]: 5 nM

O=C(Nc1nc2ccc(NC(=O)C34CC5CC(CC(C5)C3)C4)cc2s1)c1ccccc1 [NVP-231, N-[2-(Benzoylamino)-6-benzothiazolyl]tricyclo[3.3.1.13,7]decane-1-carboxamide]
C1P product levels by UPLC ESI-MS/MS in mouse dermal fibroblasts, 100 nM [3]: significantly reduced by SYR382141 in pDFs to an equivalent or greater extent as NVP-231
